Results: patent publication US8465983B1, “Detection and delivery systems utilizing supported lipid bilayers” (priority 2005, dated 2013)

System: DMPG lipid bilayer supported on MS-PPE
Experiment: Superquenching flow cytometric assay for disruption of DMPG lipid bilayer supported on MS-PPE
Format: biochemical
Description: Lipid bilayers were disrupted by adding TRITON X-100 detergent to the bead suspension to a final concentration of 0.25% (w/v).
Bead suspensions of 2.5×10^5 DMPG-coated MS-PPE in 200 μL of PBS were analyzed using a FACScan flow cytometer (Becton-Dickinson, Sunnyvale, Calif.) with excitation at 488 nm. Fluorescence signals were acquired on FL-1 channel (525 nm) using log amplification and analyzed with the CellQuest software. Kinetic analysis of disruption of supported lipid bilayer by melittin was performed by acquiring real-time data with continuous mixing of samples (10^6 MS-PPE in 800 μl of PBS) using a magnetic stirrer. The raw data were analyzed using IDL Query software developed by Bruce Edwards (Cancer Center, University of New Mexico, Albuquerque, N. Mex.).
Because an anionic lipid was used to form a lipid bilayer around MS-PPE, it was expected that MLT will disrupt the DMPG lipid bilayer by such a detergent-like action. This was tested by adding 10 μM AQS to DMPG-coated MS-PPE followed by treatment with one of the following: TRITON X-100 detergent, synthetic MLT (sMLT), or natural MLT (nMLT) and immediately reading the fluorescence by flow cytometry. […] These histograms resemble the ones reported previously for MS-PPE, without a lipid coating, in absence and in presence of AQS.
From FIG. 18, the association constant (corresponding to the reciprocal of the point of half saturation) for nMLT and sMLT with DMPG were 5×10^6 M^−1 and 1.7×10^6 M^−1, respectively. […] Lower concentrations of nMLT, in comparison to sMLT, were required to disrupt the DMPG lipid bilayer. This might be attributed to the fact that nMLT contains some phospholipase A2 (PLA2) as a contaminant. PLA2 has a high affinity for anionic phospholipids, with an association constant of 0.5×10^10 M^−1 (Kim et al., Anal. Chem. 250, 109-116 (1997)), which is about 3000 fold higher than that of MLT. Although PLA2 activity requires calcium, which is not present in the experimental system, it has been reported that even upon addition of EDTA to natural MLT, PLA2 maintains its activity, probably due to formation of a tight complex with calcium with PLA2 (Dempsey, C. E. Biochim. Biophys. Acta 1990, 1031, 143-161).
The kinetics of disruption of supported lipid bilayer by MLT were monitored by measuring real-time changes in fluorescence intensity by flow cytometry (FIG. 19). Suspensions of 10^6 DMPG-coated MS-PPE in 800 μL of PBS were treated with AQS at a final concentration of 10 μM, then with either sMLT, TRITON X-100 detergent, or no treatment. […] Treatment with sMLT in the absence of AQS led to an increase in normalized fluorescence (FIG. 19, trace A). This can be attributed to disruption of the lipid bilayer by sMLT, and is consistent with a reversal of the slight quenching of fluorescence caused by the formation of a DMPG lipid bilayer over MS-PPE. Addition of AQS alone to DMPG-coated MS-PPE (FIG. 19, trace C) led to a 20% reduction in fluorescence as reported earlier. Addition of TRITON X-100 detergent to DMPG-coated MS-PPE after the addition of AQS (first dip in trace E, FIG. 19) caused immediate decrease in fluorescence to ˜10% of its original value (second dip in trace E, FIG. 19). In contrast, addition of sMLT, after the addition of AQS, (FIG. 19, trace D) led to a gradual reduction of fluorescence intensity to ˜20% of the original value. Although MLT forms dimers at high concentrations (Dempsey, C. E. Biochim. Biophys. Acta 1990, 1031, 143-161), it is monomeric at the concentrations used in this study. On the other hand, TRITON X-100 detergent forms micelles at the concentration used in this study.

TRITON X-100
fluorescence after disruption of the lipid bilayer, % of the original fluorescence value (0.25% (w/v) TRITON X-100, 10 μM AQS, Example 2): ~10%
fluorescence after disruption, % of the fluorescence of DMPG-coated MS-PPE in the absence of quencher (0.25% (w/v) TRITON X-100, 10 μM AQS, Example 3): ~18%
fluorescence intensity after addition, % of original value (real-time kinetics) (10^6 DMPG-coated MS-PPE in 800 μL PBS, after 10 μM AQS): ~10%
